Several values for one entry are separate records, joined by “and”; a condition that tells them apart may be missing. Equal values may be shown once.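 Tested at 5 concentrations; 48 h exposure; 96-well plates; endpoints linearly interpolated, else capped at highest concentration. Abbreviation: GI50, concentration required for 50% inhibition of growth. Definition used: TGI = concentration required for complete inhibition of growth.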
Experiments:
Test in all cases: DTP human tumour cell line panel, 48 h
RXF 393 renal = tested on: RXF 393 renal
SF-268 CNS = tested on: SF-268 CNS
MALME-3M melanoma = tested on: MALME-3M melanoma
OVCAR-3 ovarian = tested on: OVCAR-3 ovarian
A549 NSCLC = tested on: A549 NSCLC
KM12 colon = tested on: KM12 colon
TK-10 renal = tested on: TK-10 renal
HL-60(TB) leukemia = tested on: HL-60(TB) leukemia
NCI-H23 lung = tested on: NCI-H23 lung
SN12C renal = tested on: SN12C renal

Row | SMILES | GI50 (RXF 393 renal) | TGI (RXF 393 renal) | GI50 (SF-268 CNS) | TGI (SF-268 CNS) | GI50 (MALME-3M melanoma) | TGI (MALME-3M melanoma) | GI50 (OVCAR-3 ovarian) | TGI (OVCAR-3 ovarian) | GI50 (A549 NSCLC) | TGI (A549 NSCLC) | GI50 (KM12 colon) | TGI (KM12 colon) | GI50 (TK-10 renal) | TGI (TK-10 renal) | GI50 (HL-60(TB) leukemia) | TGI (HL-60(TB) leukemia) | GI50 (NCI-H23 lung) | TGI (NCI-H23 lung) | GI50 (SN12C renal) | TGI (SN12C renal)
1 | CC(C)(C)OC(=O)NCCCCCCCCCCCCn1c2c(c3ccccc3c1=O)C(=O)c1ccccc1-2 | 17.8 µM | 49.2 µM | 26.8 µM | > 100 µM | > 100 µM | > 100 µM | > 100 µM | > 100 µM | > 100 µM | > 100 µM | > 100 µM | > 100 µM | 19.1 µM | 45.5 µM | > 100 µM | > 100 µM | 36.9 µM | > 100 µM | > 100 µM | > 100 µM
2 | CCNC(=O)COc1ccc(Cl)c(C)c1 | – | > 100 µM | – | > 100 µM | – | > 100 µM | – | > 100 µM | – | > 100 µM | – | > 100 µM | – | > 100 µM | – | > 100 µM | – | > 100 µM | – | > 100 µM
3 | O=C(NC1=C(Cl)C(=O)c2ccccc2C1=O)C(=O)c1c(O)c2ccccc2oc1=O | – | 21.9 µM | – | 25.6 µM | – | 2.7 µM | – | 6.79 µM | – | 6.07 µM | – | 31.3 µM | – | 37.7 µM | – | 29.1 µM | – | 4.38 µM | – | 14.3 µM
4 | C/C(=N/NC(N)=S)C(CN1CCOCC1)C(C1=C(O)c2ccccc2OC1)c1ccccc1 (configuration not stated) | – | > 100 µM | – | > 100 µM | – | > 100 µM | – | > 100 µM | – | > 100 µM | – | > 100 µM | – | > 100 µM | – | 50 µM | – | > 100 µM | – | > 100 µM
5 | Cn1cc(-c2csc(-c3ccc(Cl)cc3)n2)c2cccnc21 | 13.9 µM | 39.8 µM | 15.4 µM | 34 µM | 14.8 µM | 42.2 µM | 17.1 µM | 35.6 µM | 17.6 µM | 46.4 µM | 13 µM | 27.6 µM | 12.4 µM | 31.1 µM | 10.4 µM | 47.5 µM | 13.7 µM | 31 µM | 14.8 µM | 32.5 µM
6 | Cc1c2cc[n+](C)cc2c(C)c2c1[nH]c1ccc(OCC(F)(F)F)cc12 | > 100 µM | > 100 µM | – | 0.638 µM | – | 8.25 µM | – | 25 µM and > 100 µM | – | > 100 µM | – | > 44.8 µM | 13.5 µM and > 100 µM | > 100 µM | 5.13 µM and 16.4 µM | > 70.4 µM | – | 5.8 µM and 9.49 µM | 0.123 µM | –
7 | COc1ccc(/C=C(\C#N)c2cc(OC)c(OC)c(OC)c2)cc1 | < 0.0141 µM | > 90.7 µM | 0.0481 µM | > 100 µM | 21.3 µM | > 100 µM | < 0.014 µM | 0.0322 µM | 0.0288 µM | > 75.2 µM | < 0.01 µM | > 100 µM | – | > 100 µM | 0.0244 µM | 0.0661 µM | 0.0242 µM | > 100 µM | 0.0486 µM | > 100 µM
8 | COc1ccc(C(=O)c2ccccc2)c(O)c1 | 41 µM | > 100 µM | 55.2 µM | > 100 µM | 61.4 µM | > 100 µM | > 100 µM | > 100 µM | > 100 µM | > 100 µM | 63 µM | > 100 µM | > 100 µM | > 100 µM | 96.9 µM | > 100 µM | > 100 µM | > 100 µM | 75.6 µM | > 100 µM
9 | O=C(NCCCN1CCN(CCCNC(=O)Nc2cc(Cl)ccc2Cl)CC1)Nc1cc(Cl)ccc1Cl | – | > 100 µM | – | > 100 µM | – | 54.1 µM | – | > 100 µM | – | > 100 µM | – | > 100 µM | – | > 100 µM | – | > 100 µM | – | > 100 µM | – | > 100 µM
10 | CC(=O)c1nc(-c2ccc(C[C@@H](CNC(=O)CN(C)C)NC(=O)c3ccc(OC(C)C)c(Cl)c3)cc2)cn1C | 0.0628 µM | 16.6 µM | 0.242 µM | 22.7 µM | 0.277 µM | 18.2 µM | 0.0332 µM | 13.3 µM | 0.0518 µM | 19.1 µM | 0.0662 µM | 21.1 µM | 12.1 µM | 25 µM | 0.0223 µM | 0.0719 µM | 0.0647 µM | 21.1 µM | 0.0579 µM | 17.1 µM
11 | O=C(OCC1=CC(=O)c2ccccc2C1=O)c1ccccc1 | 13.6 µM | 26.5 µM | 14.1 µM | 29.6 µM | 1.43 µM | 3.12 µM | 3.47 µM | 18.7 µM | 2.41 µM | 6.24 µM | 11.6 µM | 24.7 µM | 15.9 µM | 29.6 µM | 3.72 µM | 14.1 µM | 6.28 µM | 24.8 µM | 15.1 µM | 28.5 µM
12 | COC(=O)c1c(C(=O)O)c(-c2ccccc2)c(-c2ccccc2)c(-c2ccccc2)c1-c1ccccc1 | > 100 µM | > 100 µM | > 100 µM | > 100 µM | > 100 µM | > 100 µM | > 100 µM | > 100 µM | > 100 µM | > 100 µM | > 100 µM | > 100 µM | > 100 µM | > 100 µM | > 100 µM | > 100 µM | > 100 µM | > 100 µM | > 100 µM | > 100 µM
13 | Cc1c(-c2ccc(-c3ccccc3F)cc2)nc2ccc(F)cc2c1C(=O)O | 76 µM | 121 µM and 236 µM | – | 173 µM and 866 µM | 22.7 µM and 43.9 µM | 107 µM and 293 µM | 10.1 µM and 23 µM | 27.5 µM and 91.6 µM and 139 µM | 0.384 µM and 0.679 µM | 78 µM and 99.3 µM and 149 µM | 0.645 µM and 0.889 µM | 109 µM and 198 µM | 62.7 µM | 208 µM and 471 µM | – | 36.4 µM and 148 µM and 302 µM | 17.4 µM and 35.1 µM | 173 µM and 529 µM | 2.63 µM and 5.25 µM | 80.6 µM and 280 µM
14 | CCCCC[C@H]1C/C=C2/C(=O)C=C[C@@H]2C/C=C\CCCC(=O)O1 | 0.0944 µM | 0.223 µM | 0.19 µM | 5.94 µM | 0.5 µM | 5.02 µM | 0.182 µM | 0.664 µM | 0.115 µM | 0.313 µM | – | – | 0.171 µM | 0.41 µM | 0.12 µM | 0.343 µM | 0.16 µM | 0.713 µM | 0.18 µM | 2.44 µM
15 | c1ccc(C2N=C(c3ccccn3)C(c3ccccn3)=NC2c2ccccc2)cc1 (configuration not stated) | – | > 100 µM | – | > 100 µM | – | > 100 µM | – | > 100 µM | – | > 100 µM | – | > 100 µM | – | > 100 µM | – | > 100 µM | – | > 100 µM | – | –
